Results on 4 compounds are retold here after patent US8993568B2, “Morpholinyl derivatives useful as MOGAT-2 inhibitors” (Eli Lilly and Company, priority 2012, dated 2015).

In general, IC50 refers to the concentration needed to halve the response being measured.

In one assay the target is human MOGAT-2 (Homo sapiens (Human), UniProt Q3SYC2). Kind of assay: MOGAT-2 Cell Assay (Caco-2 cells stably transfected with human MOGAT-2, HDG substrate, LC-MS). Type of assay: cell-based. Conditions: Caco-2 cells expressing human MOGAT-2; value (Std Dev., n).
Chain of human MOGAT-2 (Q3SYC2 whole entry): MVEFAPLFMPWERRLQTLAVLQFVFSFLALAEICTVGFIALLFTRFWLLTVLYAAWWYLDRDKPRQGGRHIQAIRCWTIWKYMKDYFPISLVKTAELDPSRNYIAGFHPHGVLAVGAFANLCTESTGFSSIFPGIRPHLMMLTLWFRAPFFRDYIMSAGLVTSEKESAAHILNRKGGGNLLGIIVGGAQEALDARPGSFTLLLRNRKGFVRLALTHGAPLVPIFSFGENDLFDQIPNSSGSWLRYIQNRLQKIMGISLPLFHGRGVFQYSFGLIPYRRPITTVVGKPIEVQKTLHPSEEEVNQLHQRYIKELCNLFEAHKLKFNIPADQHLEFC
In the next assay the test system is TAG absorption. Description: Dog Oil Bolus Model (plasma triglyceride after olive oil). Type of assay: in vivo, dog (male beagles). As to the method:
Pharmacological Effects in a Dog Oil Bolus Model
Inhibiting MOGAT-2 found in the small intestine may be useful for treating hypertriglyceridemia caused by excessive fat intake. To assess the ability of the exemplified compounds to inhibit TAG absorption, twenty one male beagles (n=7 per treatment group) are enrolled for each study, each dog selected to have a body weight between 9-13 kg. House the dogs in cages with a standard light cycle (12 hours light and 12 hours dark); at room temperature: 72±8° F.; and at 30%-70% relative humidity. Fast the dogs for 16 hours prior to the start of the study, then dose the fasted dogs with vehicle (1% HEC, 0.25%, Tween 80, Antifoam) or one of the test compounds in that vehicle. Bleed the dogs one hour after dosing, (0.5 ml from the jugular vein) for a time 0 sample. Dose the dogs with olive oil (Sigma Catalog#: O-1514, 5 ml/kg) immediately after collection of the time 0 sample. Collect samples into an EDTA tube on ice at 1.5, 2, 3, 5, 7, and 9 hrs post compound/vehicle dosing. Centrifuge the samples at […] for 15 min and analyze (Roche Cat no. 1877771) for plasma total triglyceride using a Roche Hitachi 917. For plasma TAG 18.1—18.1—18.1 measurement, extract the samples and perform LC/MS/MS analysis similarly to that described above in MOGAT-2 Cell Assay using 10 μL of plasma/.
The analyte is the [M+NH4]+ ion of TAG 18:1 18:1 18:1, which has a mass of 902.8 m/z; the internal standard is D5 TAG 16:0 16:0 16:0, which has a mass of 829.8 m/z. Report the ratio of the 603.5 m/z daughter ion of 902.8 m/z (TAG 18:1 18:1 18:1) and the 556.5 m/z daughter ion of 829.8 m/z (D5 TAG 16:0 16:0 16:0 internal standard) changes in TAG 18:1 18:1 18:1 relative amount. Calculate the net plasma TAG AUC from total TAG AUC minus baseline TAG AUC using Graphpad Prism4: (Net AUCTAG=AUCTAG post oil bolus−AUCTAG at 0 hour). The percent inhibition of plasma triglyceride is calculated as follows: the (oil bolus group mean of net TAG AUC−oil bolus group mean of net TAG AUC with compound treatment/oil bolus group mean of net TAG AUC)*100. The final statistic analysis uses Dunnett's method of One way Anova for comparison with the control. All Net TAG AUC values are transformed to ranked averaged AUC for comparison to limit the variability within the studies. The ability of exemplified compounds of the present invention to inhibit MOGAT-2 activity and reduce TAG absorption in vivo can be further evaluated according to this assay.

Setting [1] is: 30 mg/kg PO, combined three studies.
Setting [2] is: 75 mg/kg PO, combined two studies.

Method for human MOGAT-2: Inhibitory Activity in MOGAT-2 Cell Assay
The inhibitory activity of compounds against human MOGAT-2 in a cell environment is evaluated in this assay. […] The substrate is delivered to cells using as a mixture with DOPC in the form of sonicated vesicles.
Seed the Caco2 cells onto 100 mm dishes to be 80% confluent after 24 hours in complete media (3/1 DMEM: F12+10% FBS+20 mM HEPES+gentamicin). Transfect the cells with hMOGAT-2 plasmid (MOGAT-2-pCDNA3.1-Hygro) using Lipofectamine 2000 (Invitrogen). After a 6 hour exposure to the transfection mixture, wash the cells three times in PBS and then add media. Incubate the cells for an additional 18 hours incubation, trypsinize the cells and serially dilute them into 100 mm dishes. Add complete media+400 μg/ml hygromycin and incubate until clones appear. Isolate and transfer the clones into 24 well dishes and grow to confluence. Prepare the RNAs from these clones using a Qiagen RNAeasy kit. Perform Taqman analysis using an ABI inventoried assay (HS00228262) on a 7900 Sequence Detection System (ABI).
Mix 2-O-hexadecylglycerol (“HDG”, Biosynth Chemistry & Biology, # H-1806, 562.7 μl of 20 mg/ml) and DOPC (14.3 ml of 20 mg/ml) in chloroform in a glass tube; dry first under N2 gas; and then under reduced pressure for additional 30 minutes. Add 20 ml of buffer (150 mM Tris-Cl pH 7.4, 250 mM sucrose, 1 mM EDTA) to the dried HDG/DOPC mixture while sonicating until the solution becomes clear. Plate the Caco2 cells into a poly-D-lysine coated 96-well plate (the “Cell Plate”) at 37° C., 5% CO2 overnight. Remove the growth media and pretreat the cells with the test compound in DMEMF12 (3:1) media (GIBCO 93-0152DK) containing 2% BSA (Sigma) for 30 minutes. Treat the cells with one test compound in 2% BSA DMEMF12 (3:1) media containing 40 μM of oleic acid and 800 μM of 8.9:91.9 (molar ratio) HDG/DOPC for 4 hours. Trypsinize the cells with 50 μl of trypsin solution and add 50 μl of PBS. Immediately freeze the cells on dry ice and store at −20° C. for LC-MS analysis. […]

Take `CS(=O)(=O)N[C@@H](c1ccc(CN2CCOC(c3ccccc3Cl)C2)cc1)C(F)(F)F` (single isomer, unassigned; isomer 2) [Example 5]: inhibition against human MOGAT-2 was half-maximal at 16 nM (IC50). In other words, the double-digit nanomolar range.

`C[C@@H](NS(C)(=O)=O)c1ccc(CN2CCOC(c3cccc(C(F)(F)F)c3)C2)cc1` (single isomer, unassigned; isomer 2) [Example 11] displayed an IC50 against human MOGAT-2 of 98 nM.

For `CS(=O)(=O)N[C@@H](c1ccc(CN2CCOC(c3ccc(F)cc3)C2)cc1)C(F)(F)F` (single isomer, unassigned; isomer 1) [Example 14], the IC50 at human MOGAT-2 came to 40 nM.

For `C[C@@H](NS(C)(=O)=O)c1ccc(CN2CCO[C@@H](c3ccc(F)cc3)C2)cc1.O=C(O)/C=C\C(=O)O` [Example 2, N-[(1R)-1-(4-{[(2S)-2-(4-Fluorophenyl)morpholin-4-yl]methyl}phenyl)ethyl]methanesulfonamide maleate], in the assay on TAG absorption (setting [1]), the “inhibition of 18.1 TAG (plasma TAG 18:1 18:1 18:1)” value came out at 45% and the “inhibition of TAG absorption (net plasma total TAG AUC)” value came out at 43%. Also, the “reduction in excursion of postprandial triglycerides” value in the assay with TAG absorption (30 mg/kg and 75 mg/kg, combined studies, p<0.05) is “statistically significant (p<0.05) reduction”. For the same compound, in the assay with TAG absorption (setting [2]), the “inhibition of 18.1 TAG (plasma TAG 18:1 18:1 18:1)” value is reported as 63% and the “inhibition of TAG absorption (net plasma total TAG AUC)” value is on record as 64%.
